In patent US20050042180A1, “Powder formulation containing the CGRP antagonist 1 [N2-[3,5-dibromo-N-[[4-(3,4-dihydro-2 (1H)-oxoquinazolin-3-yl)-1-piperidinyl]carbonyl]-D-tyrosyl]-L-lysyl]-4-(4-pyridinyl)-piperazin, process for preparing and the use thereof as inhalation powder” (Boehringer Ingelheim International GmbH, priority 2003, published 2005):

Columns and labels:
[1] = Bioavailability after administration by inhalation as powder inhalant; details: in vivo, inhaled or intranasal; administered by inhalation as powder inhalant; based on the fine content of the formulation (FPD, USP 24 Suppl. 2000)
[2] = conventional formulations; cited from earlier work

## NCCCC[C@H](NC(=O)[C@@H](Cc1cc(Br)c(O)c(Br)c1)NC(=O)N1CCC(N2Cc3ccccc3NC2=O)CC1)C(=O)N1CCN(c2ccncc2)CC1 [A, 1-[N^2-[3,5-dibromo-N-[[4-(3,4-dihydro-2(1H)-oxoquinazolin-3-yl)-1-piperidinyl]carbonyl]-D-tyrosyl]-L-lysyl]-4-(4-pyridinyl)-piperazine]
[1]
  bioavailability: ~60%
[2]
  oral bioavailability: very limited
